Data taken from EP4696306A1, “ADENOSINE TRIPHOSPHATE SECRETION INHIBITOR, HEPATIC STELLATE CELL ACTIVATION INHIBITOR, HEPATIC STELLATE CELL DEACTIVATOR, HEPATIC FIBROSIS THERAPEUTIC AGENT, NON-ALCOHOLIC STEATOHEPATITIS THERAPEUTIC AGENT, PSORIASIS THERAPEUTIC AGENT, AND USE OF COMPOUND FOR PRODUCING ADENOSINE TRIPHOSPHATE …” (KURUME UNIVERSITY, priority 2023, dated 2024).

What follows are molecules tested on ATP transport activity in isolated chromaffin granule membranes (assay: ATP transport (3H-ATP uptake) in chromaffin granule membrane vesicles). Settings: PEP analogs.
Assay type: biochemical, bovine
Method: (§1) Chromaffin granule membranes were prepared from adrenal glands collected from slaughtered cattle according to Reference A (Nathan Nelson et al., 1988, Chromaffin Granule Proton Pump, Methods in Enzymology, 157, 619-633). Chromaffin granule membranes prepared by sucrose density gradient centrifugation were suspended in 2 ml of SME buffer (20 mM MOPS-tris (pH 7.0), 0.3 M sucrose, 5 mM EDTA, 10 µg/ml leupeptin, and 10 µg/ml pepstatin) + 25% glycerol, and the resulting suspension was aliquoted and stored at -80°C. Under these conditions, the ATP transport activity, the V-ATPase activity, and the catecholamine transport activity remain fully active for at least one year.
An ATP transport inhibition experiment for the chromaffin granule membrane was carried out according to Reference B (Yoshinori Moriyama et al., 2022, Is the vesicular nucleotide transporter a molecular target of eicosapentaenoic acid?, Frontiers in Pharmacology, 103389). About 20 µg of chromaffin granule membranes were added to 0.5 ml of measurement buffer (20 mM MOPS-tris (pH 7.0), 0.3 M sucrose, 5 mM potassium chloride, 5 mM magnesium acetate, 5 mM creatine phosphate, 10 units of creatine kinase, and 1 mM ^3[H]-ATP [15 KBq/assay]), followed by incubation at 30°C for 1 hour. Through a Millipore MCE membrane filter with a pore size 0.45 µm, 0.2 ml of the reaction liquid was filtered by suction. Thereafter, the filter was washed with 10 ml of 20 mM MOPS-tris (pH 7.0), 0.3 M sucrose, 5 mM potassium chloride, and 5 mM magnesium acetate, and dissolved in 10 ml of Clear-sol II (manufactured by Nacalai Tesque, Inc.). The radioactivity was then measured using a liquid scintillation counter (N = 3).
The reaction was initiated by adding 50 mM ^3[H]-ATP to a final concentration of 1 mM. The 50 mM ^3[H]-ATP was prepared by mixing an ATP-tris solution (manufactured by Sigma-Aldrich) with [2,8-^3H] adenosine triphosphate tetrasodium salt (26.0 Ci/mmol) (manufactured by New England Nuclear). PEP was used as a test reagent, and pyruvic acid was used as a negative control. Five minutes before the addition of ATP, PEP or pyruvic acid, as a solution in 20 mM MOPS-tris (pH 7.0), 0.3 M sucrose, 5 mM potassium chloride, and 5 mM magnesium acetate, was added to the measurement liquid to a final PEP concentration of 0.02, 0.05, 0.1, 0.2, 0.4, or 1 mM, or to a final pyruvic acid concentration of 0.5 or 1 mM.
(§2) Chromaffin granule membrane vesicles were prepared in the same manner as in Example 5, and uptake of radiolabeled ATP into the vesicles was measured. Transport activity of catecholamine (dopamine) and ATP-dependent proton transport by V-ATPase were also measured in the same manner as in Example 5.

| SMILES | IC50 [µM] |
| --- | --- |
| O=C(O)C(O)COP(=O)(O)O (stereo not drawn) [3-phosphoglyceric acid] | 450 |
| O=C(O)[C@@H](CO)OP(=O)(O)O [D-2-phosphoglyceric acid] | 180 |
| O=C(O)[C@H](CO)OP(=O)(O)O [L-2-phosphoglyceric acid] | 180 |

Same assay, conditions: concentration not given

| SMILES | inhibitory activity on ATP transport |
| --- | --- |
| C[C@H](O)C(=O)O [L-lactic acid] | no inhibitory activity |
| NC(=O)c1ccc[n+]([C@@H]2O[C@H](COP(=O)([O-])OP(=O)(O)OC[C@H]3O[C@@H](n4cnc5c(N)ncnc54)[C@H](O)[C@@H]3O)[C@@H](O)[C@H]2O)c1 [NAD+] | no inhibitory activity |
| CC(=O)SCCNC(=O)CCNC(=O)[C@H](O)C(C)(C)COP(=O)(O)OP(=O)(O)OC[C@H]1O[C@@H](n2cnc3c(N)ncnc32)[C@H](O)[C@@H]1OP(=O)(O)O [acetyl-CoA] | no inhibitory activity |
| O=C(O)CC(O)(CC(=O)O)C(=O)O [citric acid] | no inhibitory activity |
| O=C(CO)[C@@H](O)[C@H](O)[C@H](O)COP(=O)(O)O [fructose-6-phosphate] | no inhibitory activity |
| O=C[C@H](O)[C@@H](O)[C@H](O)[C@H](O)COP(=O)(O)O [glucose-6-phosphate] | no inhibitory activity |
| O=C(O)CC(O)C(=O)O (stereo not drawn) [malic acid] | no inhibitory activity |
| O=C(O)CC(=O)C(=O)O [oxaloacetic acid] | no inhibitory activity |
| CC(=O)C(=O)O [pyruvic acid] | no inhibitory activity |

Same assay, conditions: concentrations of up to 1 mM

| SMILES | inhibition of ATP transport |
| --- | --- |
| CC(=O)C(=O)O [pyruvic acid] | did not inhibit ATP transport |

Each molecule was assayed on catecholamine transport (assay: Catecholamine (3H-dopamine) transport in chromaffin granule membranes). Settings: 1 µM reserpine.
Assay type: biochemical, bovine
Method: as §1
A catecholamine transport inhibition experiment was carried out in the same manner as the ATP transport experiment except that the experiment used a measurement liquid containing 20 mM MOPS-tris (pH 7.0), 0.1 M sucrose, 0.1 M potassium chloride, 5 mM magnesium acetate, and about 5 µg of chromaffin granule membranes. To 0.5 ml of the measurement liquid, 2 mM ATP was added, and the resulting mixture was incubated at 30°C for about 5 minutes, followed by addition of^3 [H]-dopamine thereto to a final concentration of 10 µM. After further incubation at 30°C for 15 minutes, 0.2 ml of the reaction liquid was subjected to suction filtration through a Millipore MCE membrane filter with a pore size of 0.45 µm, and the radioactivity on the filter was measured (N = 3). The substrate, ^3[H]-dopamine, was prepared by mixing 3,4-[RING-2,5,6-^3H]dihydroxyphenylethylamine (dopamine) (30 Ci/mmol) (manufactured by New England Nuclear) with dopamine hydrochloride (manufactured by LKT Laboratories) such that a final concentration of 0.1 mM was achieved during the use.
as §2

| SMILES | ATP-dependent dopamine transport |
| --- | --- |
| COC(=O)[C@H]1[C@H]2C[C@@H]3c4[nH]c5cc(OC)ccc5c4CCN3C[C@H]2C[C@@H](OC(=O)c2cc(OC)c(OC)c(OC)c2)[C@@H]1OC [reserpine] | almost completely blocked |

These molecules were tested against T1, human VNUT (Homo sapiens, UniProt Q9BYT1) (assay: ATP loading into reconstituted liposomes containing human VNUT). Settings: pyruvic acid at a 50-fold higher concentration (5 mM).
T1 construct: made in house; host or cells: HIGH FIVE insect cells (baculovirus)
T1 sequence (Q9BYT1 1-430 isoform Q9BYT1-2): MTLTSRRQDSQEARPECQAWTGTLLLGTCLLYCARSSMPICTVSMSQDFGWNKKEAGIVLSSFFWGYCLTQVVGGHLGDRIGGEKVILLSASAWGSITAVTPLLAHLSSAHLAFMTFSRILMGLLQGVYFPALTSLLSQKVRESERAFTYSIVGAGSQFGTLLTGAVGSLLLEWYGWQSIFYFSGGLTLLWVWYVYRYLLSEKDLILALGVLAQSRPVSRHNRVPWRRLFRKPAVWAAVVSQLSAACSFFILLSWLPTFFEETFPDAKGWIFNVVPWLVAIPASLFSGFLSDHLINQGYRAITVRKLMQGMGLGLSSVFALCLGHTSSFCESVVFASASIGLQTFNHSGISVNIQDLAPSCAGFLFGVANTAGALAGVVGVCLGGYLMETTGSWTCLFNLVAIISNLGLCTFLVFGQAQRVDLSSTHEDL
Assay type: biochemical
Method: Human VNUT was prepared according to Reference C (Keisuke Sawada et al., 2008, Identification of a vesicular nucleotide transporter, Proc Natl Acad Sci USA, vol. 105, no. 15, 5683-5686). Insect cells (HIGH FIVE cells) were infected at MOI = 1 with a baculovirus in which a human VNUT expression system was incorporated. HIGH FIVE cells expressing VNUT (1 × 10^8 cells) were collected with a cell scraper, and suspended at about 8 mg/ml in 20 mM Tris-HCl (pH 8.0), 0.1 M potassium acetate, 10% glycerol, 10 µg/ml pepstatin A, and 10 µg/ml leupeptin, followed by homogenization of the cells using an ultrasonic generator (manufactured by Sonics Materials). […]
VNUT (protein, 20 µg) prepared by the above method was mixed with liposomes (lipid weight, 200 µg), and left to stand at -80°C for 30 minutes. […] A major band was detected at a position of about 68 kDa. The proteins after the electrophoresis with the ePAGEL E-T520 2-10% gradient gel (manufactured by Atto) were electrotransferred to a nitrocellulose sheet, and analyzed by Western blotting using an anti-human SLC17A9 (VNUT) rabbit polyclonal antibody (manufactured by Proteintech).
The ATP transport activity of the VNUT-containing reconstituted liposomes prepared by the above method was measured. […]

| SMILES | ATP loading into liposomes |
| --- | --- |
| CC(=O)C(=O)O [pyruvic acid] | did not inhibit ATP loading into liposomes |
